{"source": "paper PMC2858875", "about": "(Chemistry & biology, 2010)", "key": {"[1]": {"system": "PBMC/HUVEC co-culture", "assay_type": "cell-based, human"}, "[2]": {"system": "HUVECs"}, "[3]": {"system": "PBMC/HUVEC co-culture"}, "[4]": {"system": "MCP-1 stimulated Ser473 p-Akt production in THP-1 monocytes", "assay": "THP-1 signaling assay, MCP-1 stimulated Ser473 p-Akt", "assay_type": "cell-based", "settings": "100nM MCP-1 for 5 minutes, FACS"}, "[5]": {"system": "M-CSF stimulated Ser473 p-Akt production in THP-1 monocytes", "assay": "THP-1 signaling assay, M-CSF stimulated Ser473 p-Akt", "assay_type": "cell-based", "settings": "50ng/mL CSF-1 for 7 minutes, FACS"}, "[6]": {"molecular_target": "T1, PI3Kδ (Homo sapiens, UniProt O00329)", "T1 sequence (O00329 1-1044)": "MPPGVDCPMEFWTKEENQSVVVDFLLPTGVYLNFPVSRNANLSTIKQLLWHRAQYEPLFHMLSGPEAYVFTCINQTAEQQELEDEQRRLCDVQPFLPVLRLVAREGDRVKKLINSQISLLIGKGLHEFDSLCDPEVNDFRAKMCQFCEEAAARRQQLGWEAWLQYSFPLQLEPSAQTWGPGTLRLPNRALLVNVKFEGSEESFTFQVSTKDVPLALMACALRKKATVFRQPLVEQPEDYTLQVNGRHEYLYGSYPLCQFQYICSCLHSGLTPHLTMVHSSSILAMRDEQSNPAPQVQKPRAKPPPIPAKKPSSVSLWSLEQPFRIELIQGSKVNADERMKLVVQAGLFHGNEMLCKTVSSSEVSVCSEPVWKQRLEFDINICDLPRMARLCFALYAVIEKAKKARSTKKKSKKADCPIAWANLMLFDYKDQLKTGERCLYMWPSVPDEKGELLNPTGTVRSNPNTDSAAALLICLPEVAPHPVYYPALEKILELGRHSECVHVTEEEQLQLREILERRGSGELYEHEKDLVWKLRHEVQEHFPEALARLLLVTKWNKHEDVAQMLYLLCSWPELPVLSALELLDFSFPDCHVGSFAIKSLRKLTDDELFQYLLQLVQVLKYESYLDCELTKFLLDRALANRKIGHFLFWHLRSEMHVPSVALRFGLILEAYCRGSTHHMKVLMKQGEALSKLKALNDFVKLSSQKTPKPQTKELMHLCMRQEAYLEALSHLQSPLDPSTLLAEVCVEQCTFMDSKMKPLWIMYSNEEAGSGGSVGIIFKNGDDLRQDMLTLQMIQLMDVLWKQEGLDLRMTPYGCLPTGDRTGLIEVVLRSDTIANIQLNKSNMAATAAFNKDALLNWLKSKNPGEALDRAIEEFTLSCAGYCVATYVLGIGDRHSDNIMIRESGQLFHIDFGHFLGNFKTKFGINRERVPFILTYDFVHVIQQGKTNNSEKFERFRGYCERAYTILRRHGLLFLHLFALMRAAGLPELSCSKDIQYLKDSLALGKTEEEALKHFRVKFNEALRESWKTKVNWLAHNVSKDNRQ", "assay": "Class I PI3K kinase assay", "settings": "biochemical assay, 10μM ATP"}, "[7]": {"system": "all PI3K isoforms", "settings": "at 300nM; ref Camps et al., 2005; cited from earlier work"}}, "data": [{"smiles": "COc1ccc2c(c1OC)N=C(NC(=O)c1cccnc1)N1CCN=C21", "note": "[PIK90]", "values": [{"measurement": "CCL2/MCP-1 production", "setting": "[1]", "result": "modest effects"}, {"measurement": "CD38 production", "setting": "[1]", "result": "modest effects"}, {"measurement": "PBMC proliferation", "setting": "[1]", "result": "decrease"}, {"measurement": "HUVEC viability: sulforhodamine B (SRB) protein binding", "setting": "[2]", "result": "< -0.3", "unit": "log ratio"}, {"measurement": "HLA-DR level", "setting": "[2]; 3C system", "result": "strongly inhibited"}, {"measurement": "urokinase receptor (CD87/uPAR) level", "setting": "[2]; 3C system", "result": "strongly inhibited"}, {"measurement": "HUVEC proliferation", "setting": "[2]; HUVEC-only culture", "result": "inhibited HUVEC proliferation"}, {"measurement": "cell viability", "setting": "[3]", "result": "little effect"}, {"measurement": "CD40 level", "setting": "[3]; LPS system", "result": "significantly reduced"}]}, {"smiles": "O=C1NC(=O)/C(=C\\c2ccc3nccnc3c2)S1", "note": "[AS605240]", "values": [{"measurement": "block of MCP-1 stimulated Ser473 p-Akt production", "setting": "[4]", "result": "blocked"}, {"measurement": "block of M-CSF stimulated Ser473 p-Akt production", "setting": "[5]", "result": "ineffective"}, {"measurement": "potency against PI3Kδ (in words)", "setting": "[6]", "result": "do not significantly inhibit PI3Kδ at the doses tested"}, {"measurement": "inhibition of all PI3K isoforms", "setting": "[7]", "result": "inhibits all PI3K isoforms"}]}, {"smiles": "Cc1ccccc1-n1c(Cn2cnc3c(N)ncnc32)nc2cccc(C)c2c1=O", "note": "[IC87114]", "values": [{"measurement": "E-selectin expression in directly stimulated HUVECs", "setting": "[2]; 3C system", "result": "did not inhibit E-selectin expression"}]}]}
